The values below are quoted from earlier work in US20240335440A1, “COMBINATION THERAPY COMPRISING A PKC INHIBITOR AND A C-MET INHIBITOR” (IDEAYA BIOSCIENCES, INC., priority 2021, published 2024).

Where two headings read alike, the source gives them in different places. Marks after values point to notes of the source that are not given here.

Series [1] concerns metastatic uveal melanoma (MUM). Particulars: Second-Line + MUM (n = 127).
Series [2] shares this test system. Particulars: First-Line MUM (n = 31); oral capsules QD.

“Tebentafusp: HLA-A2-0201 bi-specific AB, IV infusion (weekly), IMCgp100-102 study”: the “Tolerability (Grade ≥3 Drug-related AE)” value in series [1] (HLA-A2-0201 patients, IV infusion weekly) is recorded as 46.5%. Further, in series [1] (independent review), the “% Pts with tumor shrinkage” value was 44%^#, the “Overall response rate by RECIST 1.1” value is listed as 4.7%^# and the “Progression free survival (mPFS)” value was 2.8 mo.^#.

Take `COc1cc2nccc(Oc3ccc(NC(=O)C4(C(=O)Nc5ccc(F)cc5)CC4)cc3)c2cc1OC` [Cabozantinib]: in series [2], the “Tolerability (Grade ≥3 Drug-related AE)” value is reported as 51.6%.
